US5578566A, “KGF receptor-derived antagonists of KGF binding” (The United States of America as represented by the …, priority 1993, dated 1996)
No end group written: not given here.

T1: KGF (Homo sapiens, UniProt P21781)
T1 construct: made in house
T1 sequence (P21781 32-194): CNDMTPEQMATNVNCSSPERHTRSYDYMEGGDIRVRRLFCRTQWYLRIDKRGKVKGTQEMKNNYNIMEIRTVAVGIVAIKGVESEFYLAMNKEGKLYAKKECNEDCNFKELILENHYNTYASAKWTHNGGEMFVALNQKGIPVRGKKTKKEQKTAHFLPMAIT


Experiments:
KGF receptor (KGFR) = target: T2, KGF receptor (KGFR) (Mus musculus, UniProt P21803); test: [125I]-KGF binding to NIH/3T3 cells overexpressing KGFR (competition); details: NIH3T3/KGFR transfectants; read-out: displacement of 50% of the radiolabeled KGF
T2 construct: expressed in transfected cells; host or cells: NIH/3T3
T2 sequence (P21803 22-707 isoform P21803-2 limits assumed): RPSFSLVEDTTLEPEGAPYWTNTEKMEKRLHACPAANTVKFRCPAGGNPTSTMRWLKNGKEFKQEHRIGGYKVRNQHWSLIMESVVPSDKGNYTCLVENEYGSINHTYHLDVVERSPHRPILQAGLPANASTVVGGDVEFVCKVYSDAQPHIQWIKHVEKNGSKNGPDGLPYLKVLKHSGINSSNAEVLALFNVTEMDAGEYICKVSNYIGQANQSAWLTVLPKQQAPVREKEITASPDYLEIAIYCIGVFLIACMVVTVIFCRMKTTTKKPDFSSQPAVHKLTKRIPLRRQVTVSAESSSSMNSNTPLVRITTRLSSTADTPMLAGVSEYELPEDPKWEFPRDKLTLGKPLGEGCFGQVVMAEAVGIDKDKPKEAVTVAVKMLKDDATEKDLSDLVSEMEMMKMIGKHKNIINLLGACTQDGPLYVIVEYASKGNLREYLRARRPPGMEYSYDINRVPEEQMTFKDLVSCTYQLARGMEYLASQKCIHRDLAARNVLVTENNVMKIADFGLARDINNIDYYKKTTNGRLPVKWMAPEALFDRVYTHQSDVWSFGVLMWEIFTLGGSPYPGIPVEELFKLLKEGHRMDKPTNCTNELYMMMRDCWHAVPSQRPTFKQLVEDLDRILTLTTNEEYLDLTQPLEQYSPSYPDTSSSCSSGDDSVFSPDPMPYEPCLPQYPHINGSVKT
Method: Values shown are the mean of triplicate samples. Results are representative of three separate experiments.
[^125 I]-KGF binding to NIH/3T3 cells overexpressing KGFR was measured as described in Bottaro et al., supra. Competition studies were performed with unlabeled KGF or peptides as indicated.

Solubility in water = type: physicochemical
KGF = target: T1, KGF; test: KGF radioimmunoassay: immunoprecipitation of [125I]-KGF by monoclonal antibody 1G4; type: binding
Method: Upper Panel: Immunoprecipitation of [^125 I]-KGF competed by KGF, aFGF, aFGF+heparin (30 μg/ml), peptide 412 (SEQ ID NO 2) or peptide 341. Lower Panel: Immunoprecipitation of [^125 I]-KGF competed by KGF, KGF+heparin (1, 10, or 30 μg/ml, as indicated), peptide 412 (SEQ ID NO 2), or peptide 412 (SEQ ID NO 2)+heparin (1, 10, or 30 μg/ml, as indicated). Values are the mean of duplicate samples, expressed as % maximum [^125 I]-KGF bound. Raw values for background and maximum [^125 I]-KGF bound were approximately 300 and 12,000 cpm/sample, respectively. Results are representative of three separate experiments.
[^125 I]-KGF was immunoprecipitated by 1G4 in the presence of unlabeled KGF, aFGF, or peptides as indicated. Briefly, 1G4 (4 ng/ml final concentration), [^125 I]-KGF (30,000 cpm), and appropriate competitors were mixed in 200 μl of buffer containing 10 mM Tris (pH 7.4), 130 mm NaCl, 1 mM EDTA, 10 mM KC1, 1% NP-40, 0.1% SDS, 0.05% Tween-20, and 0.3% nonfat dry milk, and incubated for 24h at 4° C. Antigen-antibody complex was recovered by adding 30 ul (50% suspension) GammaBind-G Sepharose, incubating an additional 30 min at 4° C. (turning gently), and brief centrifugation (5 min at 14,000×g, 4° C.). Pelleted material was washed three times ([…] each) with cold buffer, and radioactivity was measured by gamma counting.

KGF mitogenic activity = details: Ron et al.; cited from earlier work

Molecule | IC50 (KGF receptor (KGFR)) | water solubility relative to its highest ED50 (Solubility in water) | competition / displacement of [125I]-KGF from 1G4 (KGF; KGF RIA) | also measured
HSGINSSNAEVLALFNVTEM [peptide 367] | ~4 µM | approximately 30 fold | – | solubility (Solubility in water; read-out: limit of solubility in water): 125 µM
HSGINSSNAEVLALFNVTEMDAGEY [peptide 412] | ~4 µM | > 3000 fold | – | IC50 (KGF; KGF RIA, read-out: concentration required to achieve 50% displacement of [125I]-KGF from 1G4): ~1 µM; Kd (KGF; consistent with data from receptor binding assay and RIA, read-out: Kd for KGF/peptide interactions): 1 to 2 µM
heparin [reference compound] | – | – | had no effect | effect on KGF mitogenesis (KGF mitogenic activity): inhibits KGF mitogenesis
aFGF: Acidic FGF purified from bovine brain, from Upstate Biotechnology (protein, UniProt P03968 16-155, looked up) Fibroblast growth factor 1: FNLPLGNYKKPKLLYCSNGGYFLRILPDGTVDGTKDRSDQHIQLQLCAESIGEVYIKSTETGQFLAMDTDGLLYGSQTPNEECLFLERLEENHYNTYISKKHAEKHWFVGLKKNGRSKLGPRTHFGQKAILFLPLPVSSD | – | – | but not aFGF, even at a 1000-fold higher concentration | competition in the KGF RIA with addition of heparin (KGF; heparin 30 μg/ml): did not cause aFGF to compete
